Experimental data published in patent publication US20210170033A1, “NOVEL CONJUGATES OF A PHARMACEUTICAL AGENT AND A MOIETY CAPABLE OF BINDING TO A GLUCOSE SENSING PROTEIN” (SANOFI, priority 2017, published 2021).

System: A2780 cells
Assay: Deoxy-glucose uptake assay in A2780 cells (14C 2-deoxy-D-glucose transport)
Type: cell-based
Details: Homo sapiens, 20 min; inhibition of 14C 2-deoxy-D-glucose transport into A2780 cells; 20 min compound incubation; read-out: IC50
Protocol: 1. Deoxy-Glucose Uptake Assay in A2780 Cells:
For measurement of ^14C 2-deoxy-D-glucose transport into A2780 cells, cells were seeded in 96-well plates (Cytostar-T Plates Perkin Elmer, 70,000 cells/180 μl/well) in medium complete (RPMI1640+Glutamax (Life technologies #61870)) and grown for 48 hours. After 48 h, cells were washed once with 180 μL KRB (Krebs Ringer Bicarbonate) buffer, and stimulated in a dose dependent manner by adding 10 μL of test compound dilution 0-1.1 mM (11 times higher concentration than final) or 10 μL of 1.1 mM Cytochalasin B solution as negative control, to 90 μL KRB buffer and incubated for 20 minutes. After compound stimulation, the transport of ^14C 2-deoxy-D-glucose was started by adding of 50 μL 2-^14C[U] 2-deoxy-D-glucose solution (109.1 μM 2-deoxy-D-glucose cold and 33 μM 2-^14C[U] 2-deoxy-D-glucose 0.1 μCi/well) for 20 minutes. Transport was stopped by adding 50 μL/well 96 μM Cytochalasin B solution. Plates were measured in a 96-well Wallac Microbeta device. The cpm (counts per minute) values were used to determine the % inhibition values for the test compounds within each experiment. In a first step, the mean background value generated by Cytochalasin B (a potent glucose transporter inhibitor) treated cells, was subtracted from the mean values of the treated cells. All mean values were obtained from triplicates. For %-Inhibition results, the mean value of the untreated cells (just KRB) was set as 100%. All other mean values were calculated to this relation. IC50 were obtained by regression analysis of dose response curve with 7 or 14 concentrations, respectively, for each compound.

| Structure (SMILES) | IC50 [µM] |
| --- | --- |
| COc1cc(OCc2ccc(OCC(=O)OC(C)(C)C)cc2)c(Cl)cc1C(=O)O[C@H]1[C@@H](OC)O[C@H](CO)[C@@H](O)[C@@H]1O [Example 395] | 1.5 |
| COC(=O)c1cccn2cc(COc3cc(OC)c(C(=O)N[C@H]4[C@@H](OC)O[C@H](CO)[C@@H](O)[C@@H]4O)cc3Cl)nc12 [Example 396] | 17.3 |
| COc1cc(OCc2cccc(OCCCCCC(=O)O)c2)c(Cl)cc1C(=O)N[C@H]1[C@@H](OC)O[C@H](CO)[C@@H](O)[C@@H]1O [Example 398] | 85.9 |
| COC(=O)[C@H](CCCCNC(=O)COCCOCC(=O)NCc1cccc(COc2cc(OC)c(C(=O)O[C@H]3[C@@H](OC)O[C@H](CO)[C@@H](O)[C@@H]3O)cc2Cl)c1)NC(=O)OC(C)(C)C [Example 399] | 20.2 |
| COc1cc(OCc2cccc(NC(=O)COCCOCC(=O)O)c2)c(Cl)cc1C(=O)O[C@H]1[C@@H](OC)O[C@H](CO)[C@@H](O)[C@@H]1O [Example 400] | 47.1 |
| COc1cc(OCc2cccc(CNC(=O)CCC(=O)NCCCCCC(=O)O)c2)c(Cl)cc1C(=O)O[C@H]1[C@@H](OC)O[C@H](CO)[C@@H](O)[C@@H]1O [Example 405] | 60.5 |
| COc1cc(OCc2cccc(CNC(=O)CCCCCCC(=O)O)c2)c(Cl)cc1C(=O)O[C@H]1[C@@H](OC)O[C@H](CO)[C@@H](O)[C@@H]1O [Example 408] | 45 |
| COC(=O)[C@H](CCCCNC(=O)CCCCCNC(=O)CCC(=O)NCc1cccc(COc2cc(OC)c(C(=O)O[C@H]3[C@@H](OC)O[C@H](CO)[C@@H](O)[C@@H]3O)cc2Cl)c1)NC(=O)OC(C)(C)C [Example 411] | 25.9 |
| COC(=O)[C@H](CCCCNC(=O)CCCCCCC(=O)Nc1cccc(COc2cc(OC)c(C(=O)O[C@H]3[C@@H](OC)O[C@H](CO)[C@@H](O)[C@@H]3O)cc2Cl)c1)NC(=O)OC(C)(C)C [Example 414] | 0.7 |
| COc1cc(OCc2nc3ccccc3n2CCCCCCCCCCCCCCCC(=O)O)c(Cl)cc1C(=O)N[C@H]1[C@@H](OC)O[C@H](CO)[C@@H](O)[C@@H]1O [Example 421] | 15.1 |
| COc1cc(OCc2cccc(CNC(=O)CCCCCCCCC(=O)OC(C)(C)C)c2)c(Cl)cc1C(=O)N[C@H]1[C@@H](OC)O[C@H](CO)[C@@H](O)[C@@H]1O [Example 427] | 60.5 |
| COc1cc(OCc2cccc(NC(=O)CCC(=O)OC(C)(C)C)c2)c(Cl)cc1C(=O)N[C@H]1[C@@H](OC)O[C@H](CO)[C@@H](O)[C@@H]1O [Example 428] | 4.4 |
| COc1cc(OCc2cccc(NC(=O)CCCC(=O)OC(C)(C)C)c2)c(Cl)cc1C(=O)N[C@H]1[C@@H](OC)O[C@H](CO)[C@@H](O)[C@@H]1O [Example 429] | 2.9 |
| COc1cc(OCc2cccc(NC(=O)CCCCCCCCC(=O)OC(C)(C)C)c2)c(Cl)cc1C(=O)N[C@H]1[C@@H](OC)O[C@H](CO)[C@@H](O)[C@@H]1O [Example 431] | 6.1 |
| COC(=O)[C@H](CCCCNC(=O)CCC(=O)NCc1cccc(COc2cc(OC)c(C(=O)N[C@H]3[C@@H](OC)O[C@H](CO)[C@@H](O)[C@@H]3O)cc2Cl)c1)NC(=O)OC(C)(C)C [Example 435] | 45.3 |
| COC(=O)[C@H](CCCCNC(=O)CCCC(=O)NCc1cccc(COc2cc(OC)c(C(=O)N[C@H]3[C@@H](OC)O[C@H](CO)[C@@H](O)[C@@H]3O)cc2Cl)c1)NC(=O)OC(C)(C)C [Example 436] | 34.2 |
| COc1c(C(=O)N[C@H]2[C@H](OC)O[C@H](CO)[C@@H](O)[C@@H]2O)cc(Cl)c(OCc2cccc(CNC(=O)OC(C)(C)C)c2)c1Cl [Example 447] | 30.6 |
| CO[C@H]1O[C@H](CO)[C@@H](O)[C@H](O)[C@H]1NC(=O)c1cc(Cl)c(OCc2cccc(CNC(=O)CCC(=O)OC(C)(C)C)c2)c(Cl)c1C [Example 449] | 18.5 |

| Structure (SMILES) | IC50 [µM] |
| --- | --- |
| CO[C@H]1O[C@H](CO)[C@@H](O)[C@H](O)[C@H]1NC(=O)c1cc(Cl)c(OCc2cccc(CNC(=O)CCCC(=O)OC(C)(C)C)c2)c(Cl)c1C [Example 450] | 25.8 |
| CO[C@H]1O[C@H](CO)[C@@H](O)[C@H](O)[C@H]1NC(=O)c1cc(Cl)c(OCc2cccc(NC(=O)CCCCCCC(=O)OC(C)(C)C)c2)c(Cl)c1C [Example 454] | 25.6 |
| CO[C@H]1O[C@H](CO)[C@@H](O)[C@H](O)[C@H]1OC(=O)c1cc(Cl)c(OCc2cccc(CNC(=O)CCCCCCCCC(=O)OC(C)(C)C)c2)c(Cl)c1C [Example 456] | 25 |
| COc1cc(OCc2cccc(CNC(=O)CCCCCCC(=O)NCCCCCC(=O)OC(C)(C)C)c2)c(Cl)cc1C(=O)N[C@H]1[C@@H](OC)O[C@H](CO)[C@@H](O)[C@@H]1O [Example 457] | 31.7 |
| COC(=O)[C@H](CCCCNC(=O)CCCC(=O)NCc1cccc(COc2c(Cl)cc(C(=O)N[C@H]3[C@@H](OC)O[C@H](CO)[C@@H](O)[C@@H]3O)c(C)c2Cl)c1)NC(=O)OC(C)(C)C [Example 460] | 84.6 |
| COC(=O)[C@H](CCCCNC(=O)CCCC(=O)Nc1cccc(COc2c(Cl)cc(C(=O)N[C@H]3[C@@H](OC)O[C@H](CO)[C@@H](O)[C@@H]3O)c(C)c2Cl)c1)NC(=O)OC(C)(C)C [Example 463] | 25.1 |
| COC(=O)[C@H](CCCCNC(=O)CCCCCCC(=O)Nc1cccc(COc2c(Cl)cc(C(=O)N[C@H]3[C@@H](OC)O[C@H](CO)[C@@H](O)[C@@H]3O)c(C)c2Cl)c1)NC(=O)OC(C)(C)C [Example 464] | 44 |
| COC(=O)[C@H](CCCCNC(=O)CCCCCCCCC(=O)Nc1cccc(COc2c(Cl)cc(C(=O)N[C@H]3[C@@H](OC)O[C@H](CO)[C@@H](O)[C@@H]3O)c(C)c2Cl)c1)NC(=O)OC(C)(C)C [Example 465] | 49.9 |
| COc1cc(OCc2cccc(NC(=O)CCCCCCC(=O)NCCCCCC(=O)OC(C)(C)C)c2)c(Cl)cc1C(=O)N[C@H]1[C@@H](OC)O[C@H](CO)[C@@H](O)[C@@H]1O [Example 466] | 3.4 |
| COc1cc(OCc2cccc(NC(=O)CCCCCCCCC(=O)NCCCCCC(=O)OC(C)(C)C)c2)c(Cl)cc1C(=O)N[C@H]1[C@@H](OC)O[C@H](CO)[C@@H](O)[C@@H]1O [Example 467] | 27.9 |
| COC(=O)[C@H](CCCCNC(=O)CCCCCNC(=O)CCCCCCC(=O)NCc1cccc(COc2cc(OC)c(C(=O)N[C@H]3[C@@H](OC)O[C@H](CO)[C@@H](O)[C@@H]3O)cc2Cl)c1)NC(=O)OC(C)(C)C [Example 468] | 27.8 |
| COC(=O)CCCCCCCn1c(COc2cc(OC)c(C(=O)N[C@H]3[C@@H](OC)O[C@H](CO)[C@@H](O)[C@@H]3O)cc2Cl)nc2ccccc21 [Example 470] | 61.4 |
| COc1cc(OCc2coc(-c3ccc(C(F)(F)F)cc3)n2)c(Cl)cc1C(=O)O[C@H]1[C@@H](OC)O[C@H](CO)[C@@H](O)[C@@H]1O [Example 473] | < 0.1 |
| COc1cc(OCc2coc(-c3ccc(Cl)cc3)n2)c(Cl)cc1C(=O)O[C@H]1[C@@H](OC)O[C@H](CO)[C@@H](O)[C@@H]1O [Example 474] | < 0.1 |
| COc1cc(OCc2cnc(-c3ccc(Cl)cc3)o2)c(Cl)cc1C(=O)O[C@H]1[C@@H](OC)O[C@H](CO)[C@@H](O)[C@@H]1O [Example 475] | < 0.1 |
| COc1cc(OCc2ccc(-c3csnn3)cc2)c(Cl)cc1C(=O)O[C@H]1[C@@H](OC)O[C@H](CO)[C@@H](O)[C@@H]1O [Example 476] | < 0.1 |
| COc1cc(OCc2nnc(-c3ccc(Cl)cc3)s2)c(Cl)cc1C(=O)O[C@H]1[C@@H](OC)O[C@H](CO)[C@@H](O)[C@@H]1O [Example 477] | 3.7 |
